Results on 17 molecules are retold here after patent US7435820B2, “Substituted tetrahydro-1H-pyrazolo [3,4-c]pyridines compositions comprising them, and use” (Aventis Pharma S.A., priority 2003, dated 2008).

In test [1] the target is T1, human KDR enzyme (Homo sapiens, UniProt P35968).
T1 construct: The cytoplasmic domain of the human KDR enzyme was cloned in GST fusion form; GST; made in house; host or cells: SF21 insect cells (baculovirus, pFastBac)
In words: KDR kinase inhibition: phosphorylation of PLCγ SH2-SH3 substrate by KDR enzyme, 33P-ATP scintillation plate. The class given is biochemical. How it is done: The inhibitory effect of the compounds is determined in an assay for phosphorylation of substrate by the KDR enzyme in vitro using a scintillation technique (96-well plate, NEN).
The cytoplasmic domain of the human KDR enzyme was cloned in GST fusion form into the baculovirus expression vector pFastBac. The protein was expressed in SF21 cells and purified to approximately 60% homogeneity. The KDR kinase activity is measured in 20 mM MOPS, 10 mM MgCl2, 10 mM MnCl2, 1 mM DTT, 2.5 mM EGTA, 10 mM b-glycerophosphate, pH=7.2, in the presence of 10 mM MgCl2, 100 μM Na3VO4 and 1 mM NaF. 10 μl of the compound are added to 70 μl of kinase buffer containing 100 ng of KDR enzyme at 4° C. The reaction is initiated by adding 20 μl of solution containing 2 μg of substrate (SH2-SH3 fragment of PLCγ expressed in the form of an GST fusion protein), 2 μCi γ ^33P[ATP] and 2 μM cold ATP. After incubation for 1 hour at 37° C., the reaction is stopped by adding 1 volume (100 μl) of 200 mM EDTA. The incubation buffer is removed and the wells are washed three times with 300 μl of PBS. The radioactivity is measured in each well using a Top Count NXT (Packard) radioactivity counter.
The background noise is determined by measuring the radioactivity in four different wells containing the radioactive ATP and the substrate alone.
A total activity control is measured in four different wells containing all the reagents (γ^33P-[ATP], KDR and PLC-γ substrate) but in the absence of compound.
The inhibition of the KDR activity with the compound of the invention is expressed as percentage inhibition of the control activity determined in the absence of compound.
The compound SU5614 (Calbiochem) (1 μM) is included in each plate as inhibition control.

Test [2] has as its target T2, human Tie2 (Homo sapiens, UniProt Q02763).
T2 construct: human Tie2 corresponding to amino acids 776-1124 of the intracellular domain was generated by PCR; made in house; host or cells: baculovirus expression system (vector pFastBacGT)
Briefly: Tie2 kinase inhibition: phosphorylation of GST-PLC (SH2-SH3 fragments) by GST-Tie2, 33P-ATP flashplate. In kind it is biochemical. How it is done:
The coding sequence of human Tie2 corresponding to amino acids 776-1124 of the intracellular domain was generated by PCR using the cDNA isolated from human placenta as model. This sequence was introduced into a baculovirus expression vector pFastBacGT in the form of a GST fusion protein.
The inhibitory effect of the molecules is determined in an assay for phosphorylation of PLC by Tie2 in the presence of GST-Tie2 purified to approximately 80% homogeneity. The substrate is made up of the SH2-SH3 fragments of PLC, the latter being expressed in the form of a GST fusion protein.
The kinase activity of Tie2 is measured in a 20 mM MOPS buffer, pH 7.2, containing 10 mM MgCl2, 10 mM MnCl2, 1 mM DTT and 10 mM of glycerophosphate. A reaction mixture made up of 70 μl of kinase buffer containing 100 ng of GST-Tie2 enzyme per well is placed in a flashplate 96-well plate kept on ice. 10 μl of the molecule to be tested, diluted in DMSO, at a concentration of at most 10% are then added. For a given concentration, each measurement is carried out in quadruplicate. The reaction is initiated by adding 20 μl of solution containing 2 μg of GST-PLC, 2 μM of cold ATP and 1 μCi of ^33P[ATP]. After incubation for 1 hour at 37° C., the reaction is stopped by adding 1 volume (100 μl) of 200 mM EDTA. After removal of the incubation buffer, the wells are washed three times with 300 μl of PBS. The radioactivity is measured on a Wallac MicroBeta 1450.
The inhibition of the Tie2 activity is calculated and expressed as percentage inhibition with respect to the control activity determined in the absence of compound.

The structures appear in SMILES notation. Where two headings read alike, the source gives them in different places.

T1 sequence (P35968 786-1356 limits assumed): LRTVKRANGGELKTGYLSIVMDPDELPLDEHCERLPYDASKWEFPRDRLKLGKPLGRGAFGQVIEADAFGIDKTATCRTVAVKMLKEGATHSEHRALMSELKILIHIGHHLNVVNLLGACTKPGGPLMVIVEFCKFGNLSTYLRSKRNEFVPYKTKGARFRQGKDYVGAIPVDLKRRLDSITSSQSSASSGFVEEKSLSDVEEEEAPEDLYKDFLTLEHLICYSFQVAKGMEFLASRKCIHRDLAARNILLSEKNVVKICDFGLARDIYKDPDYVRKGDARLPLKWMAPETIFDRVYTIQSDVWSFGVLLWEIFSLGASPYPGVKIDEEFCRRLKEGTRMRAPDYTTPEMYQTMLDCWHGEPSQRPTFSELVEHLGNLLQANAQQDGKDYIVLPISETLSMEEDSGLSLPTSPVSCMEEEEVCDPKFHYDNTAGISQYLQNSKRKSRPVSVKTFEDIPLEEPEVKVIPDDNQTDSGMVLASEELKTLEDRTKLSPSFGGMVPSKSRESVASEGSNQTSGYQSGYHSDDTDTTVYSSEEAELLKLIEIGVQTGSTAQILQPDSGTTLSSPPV
T2 sequence (Q02763 776-1124): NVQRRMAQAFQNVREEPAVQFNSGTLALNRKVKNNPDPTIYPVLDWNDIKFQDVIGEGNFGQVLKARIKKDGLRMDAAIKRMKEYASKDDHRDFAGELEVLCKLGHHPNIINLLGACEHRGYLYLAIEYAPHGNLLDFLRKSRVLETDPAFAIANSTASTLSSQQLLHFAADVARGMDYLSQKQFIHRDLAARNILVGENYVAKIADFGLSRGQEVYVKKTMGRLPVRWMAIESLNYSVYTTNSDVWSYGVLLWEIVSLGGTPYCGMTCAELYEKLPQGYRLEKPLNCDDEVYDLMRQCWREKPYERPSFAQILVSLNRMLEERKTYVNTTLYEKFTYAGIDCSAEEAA

With `Cc1cc2nc(-c3[nH]nc4c3CCN(C(=O)Nc3ccccc3Cl)C4)[nH]c2cc1C` [Chemistry 61], the inhibition at 10 µM in test [1] (read-out: KDR % Inhib. 10 μM) is 12.7%; in test [2] (read-out: Tie2 % Inhib. 10 μM), 3.75%.
In the same order, the values of `Cc1cc2nc(-c3[nH]nc4c3CCN(S(=O)(=O)c3ccccc3Cl)C4)[nH]c2cc1C` [Chemistry 31] are 45.7% and 93.2%.
`Cc1cc2nc(-c3[nH]nc4c3CCN(CC3CC3)C4)[nH]c2cc1C` [Chemistry 21]: the values for the inhibition at 10 µM in test [1] (read-out: KDR % Inhib. 10 μM) and in test [2] (read-out: Tie2 % Inhib. 10 μM) were 1.85% and 33%, respectively.
As for `Cc1cc2nc(-c3[nH]nc4c3CCN(C(=O)Nc3ccccc3C)C4)[nH]c2cc1C` [Chemistry 68], the inhibition at 10 µM in test [1] (read-out: KDR % Inhib. 10 μM) amounted to 19.5%; in test [2] (read-out: Tie2 % Inhib. 10 μM), 19.1%.
Regarding `Cc1cc2c(cc1C)NC(c1[nH]nc3c1CCN(C(=O)c1ccc(C)c([N+](=O)[O-])c1)C3)N2` [Example P-31378-112-14], the inhibition at 10 µM in test [1] (Assay 1, read-out: KDR % Inhib at 10 μM Assay 1) was found to be 19.5%; in test [1] (Assay 2, read-out: KDR % Inhib at 10 μM Assay 2), 13%; in test [2] (Assay 1, read-out: Tie2 % Inhib at 10 μM (FRX) Assay 1) it was 69.7%; in test [2] (Assay 2, read-out: Tie2 % Inhib at 10 μM (FRX) Assay 2) it was 73.8%.
On to `Cc1cc2nc(-c3[nH]nc4c3CCN(Cc3cccc(Cl)c3)C4)[nH]c2cc1C` [Chemistry 5], for which the inhibition at 10 µM in test [1] (read-out: KDR % Inhib. 10 μM) was found to be 88.8%.
Turning to `Cc1cc2nc(-c3[nH]nc4c3CCN(C(=O)c3ccc(S(C)(=O)=O)cc3)C4)[nH]c2cc1C` [Chemistry 58], the inhibition at 10 µM in test [1] (read-out: KDR % Inhib. 10 μM) was 27.9%; in test [2] (read-out: Tie2 % Inhib. 10 μM), 82.3%.
In the same order, the values of `Cc1cc2nc(-c3[nH]nc4c3CCN(Cc3cccs3)C4)[nH]c2cc1C` [Chemistry 13] are 84.5% and 41.5%.
For `Cc1cc2nc(-c3[nH]nc4c3CCN(C)C4)[nH]c2cc1C` [Chemistry 7] the same measures were 12.2% and 48.6%.
With `Cc1cc2nc(-c3[nH]nc4c3CCN(C(=O)c3ccccc3Nc3cccc(C(F)(F)F)c3)C4)[nH]c2cc1C` [Example P-31378-112-3], in test [1] (Assay 1), the “KDR % Inhib at 10 μM Assay 1” value was 59.0%. Besides, the “KDR % Inhib at 10 μM Assay 2” value in test [1] (Assay 2) is recorded as 56.5%. Also, in test [2] (Assay 1, 10 µM), the “Tie2 % Inhib at 10 μM (FRX) Assay 1” value is 78.7%. The “Tie2 % Inhib at 10 μM (FRX) Assay 2” value in test [2] (Assay 2, 10 µM) is listed as 79.1%.
As to `Cc1cc2nc(-c3[nH]nc4c3CCN(S(=O)(=O)c3cccc(Cl)c3Cl)C4)[nH]c2cc1C` [Chemistry 25], the inhibition at 10 µM in test [1] (read-out: KDR % Inhib. 10 μM) was 31.9%; in test [2] (read-out: Tie2 % Inhib. 10 μM), 89.1%.
In the case of `Cc1cc2nc(-c3[nH]nc4c3CCN(Cc3cccc(Cl)c3Cl)C4)[nH]c2cc1C` [Chemistry 10], the inhibition at 10 µM in test [1] (read-out: KDR % Inhib. 10 μM) worked out at 79.5%; in test [2] (read-out: Tie2 % Inhib. 10 μM), 83.9%.
Regarding `Cc1cc2nc(-c3[nH]nc4c3CCN(C(=O)NCCc3ccccc3)C4)[nH]c2cc1C` [Chemistry 2], the inhibition at 10 µM in test [1] (read-out: KDR % Inhib. 10 μM) turned out to be 77.2%.
Still for that read-out and setting: with `Cc1cc2nc(-c3[nH]nc4c3CCN(C(=O)c3cccnc3)C4)[nH]c2cc1C` [Chemistry 4] the figure was 25.4%; with `Cc1cc2nc(-c3[nH]nc4c3CCN(S(C)(=O)=O)C4)[nH]c2cc1C` [Chemistry 3], 78.1%.
In the case of `COc1ccc(S(=O)(=O)Nc2ccc(N3CCc4c(n[nH]c4-c4nc5cc(C)c(C)cc5[nH]4)C3)nc2)cc1`, in test [2] (read-out: Tie2 % Inhib. 10 μM), the inhibition at 10 µM came to 99%.
With `Cc1cc2nc(-c3[nH]nc4c3CCN(c3ccc(NS(=O)(=O)c5ccccc5Cl)cn3)C4)[nH]c2cc1C`, in test [2] (read-out: Tie2 % Inhib. 10 μM), the inhibition at 10 µM was determined as 100%.
